{"source": "patent US10813982B2", "about": "“Composition comprising an oxidoreductase enzyme and its antibacterial use” (SYSTAGENIX WOUND MANAGEMENT, LIMITED, priority 2015, dated 2020)", "key": {"S. aureus biofilms": {"test_system": "S. aureus biofilms", "test": "Biofilm model: 24 hour exposure against 24 hour old single species biofilm, viable count", "assay_type": "cell-based, Staphylococcus aureus", "settings": "30 μl per disc/biofilm, 37° C., 80 rpm shaking, FIG. 2", "procedure": "(§1) Stationary phase cultures of S. aureus or P. aeruginosa grown in TSB were adjusted to 0.5 McFarland (c. 1.5×10^8 CFU/mL) and diluted a further 1:4 ratio (1 mL inoculum with 3 mL 0.1% Bactopeptone). A viable count was taken of each inoculum preparation. Sterile discs (6 mm diameter×1.0 mm) housed in 24 well culture plates were inoculated with 80 μL of culture. 0.2 ml of a test media was then added, the assay plates were parafilmed and incubated for 24 h at 37 degrees Celsius with 80 rpm shaking to allow biofilm formation. Unused wells were filled with PBS to increase humidity and prevent evaporation. After 24 hours incubation, cellulose discs/biofilms were rinsed with PBS to remove any […] vegetative cells and transferred to 150 μl of fresh media. For the honey (as the source of glucose) and Prontosan®, 30 μl was added to each test disc. […] Assuming the lowest concentration (100,[…]), 3.5 mg (350 U) was added to 3.5 ml of DPBS to give a 100 U/ml working stock which was filter sterilised. […] 30 μl of each was added to a disc/biofilm. The assay plates were parafilmed and incubated for 24 hours at 37° C. with 80 rpm shaking to allow biofilm disruption. Unused wells were filled with PBS to increase humidity and prevent evaporation. […]"}, "P. aeruginosa biofilms": {"test_system": "P. aeruginosa biofilms", "test": "Biofilm model: 24 hour exposure against 24 hour old single species biofilm, viable count", "assay_type": "cell-based, Pseudomonas aeruginosa", "settings": "30 μl per disc/biofilm, 37° C., 80 rpm shaking, FIG. 1", "procedure": "as §1, with “sterilised. For the Pseudomonas experiment, the working stock was diluted in PBS to give a 10 U/ml solution-30 μl was added to a disc/biofilm.” for “sterilised.”"}}}
{"substance": "glucose oxidase [glucose oxidase alone]", "values": [{"measurement": "inhibition of 24 hour old single species biofilms of S. aureus", "setting": "S. aureus biofilms", "value": "no inhibition"}, {"measurement": "inhibition of 24 hour old single species biofilms of P. aeruginosa", "setting": "P. aeruginosa biofilms", "value": "no inhibition"}]}
